According to patent US9890152B2 (Genentech, Inc., priority 2012, dated 2018):

molecular target: T1, EGFR del746-750 T790M (Homo sapiens, UniProt P00533, DEL746-750/T790M); test: EGFR del746-750 T790M biochemical assay (Caliper mobility shift); details: 5 μM ATP, 30 min, room temperature; apparent Ki (Morrison) converted by Cheng-Prusoff, Km of ATP 2.1 μM; read-out: EGFR(T790M/d746-750) Ki
T1 construct: purchased Carna Biosciences 08-528
T1 sequence (P00533 with tags, fused parts or gaps DEL746-750/T790M limits assumed): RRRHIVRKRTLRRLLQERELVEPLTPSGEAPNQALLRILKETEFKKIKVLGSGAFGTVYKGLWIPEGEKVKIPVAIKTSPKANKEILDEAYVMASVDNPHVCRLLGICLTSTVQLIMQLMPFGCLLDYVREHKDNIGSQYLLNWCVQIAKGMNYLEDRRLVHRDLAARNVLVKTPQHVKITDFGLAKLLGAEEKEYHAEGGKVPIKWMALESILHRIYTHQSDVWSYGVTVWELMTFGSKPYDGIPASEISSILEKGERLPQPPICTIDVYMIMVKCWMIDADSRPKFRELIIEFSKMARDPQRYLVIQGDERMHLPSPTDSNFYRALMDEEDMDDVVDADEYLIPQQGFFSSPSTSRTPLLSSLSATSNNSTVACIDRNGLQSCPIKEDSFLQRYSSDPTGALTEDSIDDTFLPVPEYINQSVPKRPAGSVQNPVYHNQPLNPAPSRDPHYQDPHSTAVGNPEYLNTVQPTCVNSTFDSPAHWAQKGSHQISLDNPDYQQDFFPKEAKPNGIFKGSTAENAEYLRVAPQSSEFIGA

Ki [nM] | SMILES
359 | CO[C@@H]1CCN(c2nccc(Nc3cc4c(cn3)nc(C)n4C(C)C)n2)C[C@H]1O (racemic) [Example 508, (±)-1-(4-((1-Isopropyl-2-methyl-1H-imidazo[4,5-c]pyridin-6-yl)amino)pyrimidin-2-yl)-4-methoxypiperidin-3-ol]
348 | CO[C@H]1CN(c2nccc(Nc3cc4c(cn3)nc(C)n4C(C)C)n2)CC[C@@H]1O (racemic) [Example 509, (±)-1-(4-((1-Isopropyl-2-methyl-1H-imidazo[4,5-c]pyridin-6-yl)amino)pyrimidin-2-yl)-3-methoxypiperidin-4-ol]
50.9 | CO[C@H]1CCN(c2nccc(Nc3cc4c(cn3)nc(C)n4C(C)C)n2)C[C@H]1F (racemic) [Example 524, (±)-[2-((cis)-3-Fluoro-4-methoxypiperidin-1-yl)pyrimidin-4-yl]-(1-isopropyl-2-methyl-1H-imidazo[4,5-c]pyridin-6-yl)amine]
222 | CO[C@H]1CCN(c2nccc(Nc3cc4c(cn3)nc(C)n4C(C)C)n2)C[C@@H]1F (racemic) [Example 525, (±)-[2-((trans)-3-Fluoro-4-methoxypiperidin-1-yl)pyrimidin-4-yl]-(1-isopropyl-2-methyl-1H-imidazo[4,5-c]pyridin-6-yl)amine]
50.5 | CO[C@H]1CCN(c2nccc(Nc3cc4c(cn3)nc(CO)n4C(C)C)n2)C[C@H]1F (racemic) [Example 526, (±)-{6-[2-((cis)-3-Fluoro-4-methoxypiperidin-1-yl)pyrimidin-4-ylamino]-1-isopropyl-1H-imidazo[4,5-c]pyridin-2-yl}methanol]
239 | CO[C@H]1CCN(c2nccc(Nc3cc4c(cn3)nc(CO)n4C(C)C)n2)C[C@@H]1F (racemic) [Example 527, (±)-{6-[2-((trans)-3-Fluoro-4-methoxypiperidin-1-yl)pyrimidin-4-ylamino]-1-isopropyl-1H-imidazo[4,5-c]pyridin-2-yl}methanol]
43.3 | COC1CCN(c2nccc(Nc3cc4c(cn3)nc(C)n4C(C)C)n2)CC1(F)F (racemic) [Example 528, (±)-[2-(3,3-Difluoro-4-methoxypiperidin-1-yl)pyrimidin-4-yl](1-isopropyl-2-methyl-1H-imidazo[4,5-c]pyridin-6-yl)amine]
41.1 | CO[C@H]1CCN(c2nccc(Nc3cc4c(cn3)nc(C)n4C(C)C)n2)C[C@H]1F (racemic) [Example 607, [2-((3RS,4SR)-3-Fluoro-4-methoxypiperidin-1-yl)pyrimidin-4-yl]-(1-isopropyl-2-methyl-1H-imidazo[4,5-c]pyridin-6-yl)amine]
48.3 | CO[C@H]1CCN(c2nccc(Nc3cc4c(cn3)nc(C)n4C(C)C)n2)C[C@H]1F (racemic) [Example 608, [2-((3RS,4SR)-3-Fluoro-4-methoxypiperidin-1-yl)pyrimidin-4-yl]-(1-isopropyl-2-methyl-1H-imidazo[4,5-c]pyridin-6-yl)amine]
483 | Cc1nc2cnc(Nc3ccnc(N4CC[C@@H](S(C)(=O)=O)[C@H](F)C4)n3)cc2n1C(C)C (racemic) [Example 616, [2-(±)-(trans-3-Fluoro-4-methanesulfonylpiperidin-1-yl)pyrimidin-4-yl]-(1-isopropyl-2-methyl-1H-imidazo[4,5-c]pyridin-6-yl)amine]
115 | CS[C@H]1CCN(c2nccc(Nc3cc4c(cn3)nc(C)n4C(C)C)n2)C[C@H]1F (racemic) [Example 617, [2-(±)-(cis-3-Fluoro-4-methylsulfanylpiperidin-1-yl)pyrimidin-4-yl]-(1-isopropyl-2-methyl-1H-imidazo[4,5-c]pyridin-6-yl)amine]
236 | Cc1nc2cnc(Nc3ccnc(N4CC[C@H]([S+](C)[O-])[C@H](F)C4)n3)cc2n1C(C)C (mixture of isomers) [Example 618, [2-(±)-(cis-3-Fluoro-4-methanesulfinylpiperidin-1-yl)pyrimidin-4-yl]-(1-isopropyl-2-methyl-1H-imidazo[4,5-c]pyridin-6-yl)amine]
146 | CC(C)n1c(CO)nc2cnc(Nc3ccnc(N4CC[C@](C)(O)[C@H](F)C4)n3)cc21 (racemic) [Example 619, (3RS,4SR)-3-Fluoro-1-[4-(2-hydroxymethyl-1-isopropyl-1H-imidazo[4,5-c]pyridin-6-ylamino)pyrimidin-2-yl]-4-methylpiperidin-4-ol]
170 | CS[C@H]1CCN(c2nccc(Nc3cc4c(cn3)nc(CO)n4C(C)C)n2)C[C@H]1F (racemic) [Example 622, (±)-{6-[2-(cis-3-Fluoro-4-methylsulfanylpiperidin-1-yl)pyrimidin-4-ylamino]-1-isopropyl-1H-imidazo[4,5-c]pyridin-2-yl}methanol]
1250 | CC(C)n1c(CO)nc2cnc(Nc3ccnc(N4CC[C@H](O)[C@H](C(F)(F)F)C4)n3)cc21 (racemic) [Example 626, (±)-(cis)-1-(4-(2-(Hydroxymethyl)-1-isopropyl-1H-imidazo[4,5-c]pyridin-6-ylamino)pyrimidin-2-yl)-3-(trifluoromethyl)piperidin-4-ol]
1570 | CC(C)n1c(CO)nc2cnc(Nc3ccnc(N4CC[C@@H](O)[C@H](C(F)(F)F)C4)n3)cc21 (racemic) [Example 627, (±)-(trans)-1-(4-(2-(Hydroxymethyl)-1-isopropyl-1H-imidazo[4,5-c]pyridin-6-ylamino)pyrimidin-2-yl)-3-(trifluoromethyl)piperidin-4-ol]
1190 | CO[C@H]1CCN(c2nccc(Nc3cc4c(cn3)nc(CO)n4C(C)C)n2)C[C@H]1C(F)(F)F (racemic) [Example 628, (1-Isopropyl-6-(2-((±)-(cis)-4-methoxy-3-(trifluoromethyl)piperidin-1-yl)pyrimidin-4-ylamino)-1H-imidazo[4,5-c]pyridin-2-yl)methanol]
2960 | CO[C@@H]1CCN(c2nccc(Nc3cc4c(cn3)nc(CO)n4C(C)C)n2)C[C@H]1C(F)(F)F (racemic) [Example 629, (1-Isopropyl-6-(2-((±)-(trans)-4-methoxy-3-(trifluoromethyl)piperidin-1-yl)pyrimidin-4-ylamino)-1H-imidazo[4,5-c]pyridin-2-yl)methanol]
202 | CC(C)n1c(CO)nc2cnc(Nc3ccnc(N4CC[C@@H](O)[C@H](C)C4)n3)cc21 (racemic) [Example 630, (±)-(trans)-1-(4-(2-(Hydroxymethyl)-1-isopropyl-1H-imidazo[4,5-c]pyridin-6-ylamino)pyrimidin-2-yl)-3-methylpiperidin-4-ol]
351 | CC(C)n1c(CO)nc2cnc(Nc3ccnc(N4CC[C@H](O)[C@H](C)C4)n3)cc21 (racemic) [Example 631, (±)-(cis)-1-(4-(2-(Hydroxymethyl)-1-isopropyl-1H-imidazo[4,5-c]pyridin-6-ylamino)pyrimidin-2-yl)-3-methylpiperidin-4-ol]
326 | CO[C@@H]1CCN(c2nccc(Nc3cc4c(cn3)nc(CO)n4C(C)C)n2)C[C@@H]1C (racemic) [Example 632, (1-Isopropyl-6-(2-((±)-(cis)-4-methoxy-3-methylpiperidin-1-yl)pyrimidin-4-ylamino)-1H-imidazo[4,5-c]pyridin-2-yl)methanol]
210 | CC(C)n1c(CO)nc2cnc(Nc3ccnc(N4CC[C@@](O)(C5CC5)[C@H](F)C4)n3)cc21 (racemic) [Example 633, (3RS,4RS)-4-cyclopropyl-3-fluoro-1-(4-((2-(hydroxymethyl)-1-isopropyl-1H-imidazo[4,5-c]pyridin-6-yl)amino)pyrimidin-2-yl)piperidin-4-ol]
146 | CO[C@@H]1CCN(c2nccc(Nc3cc4c(cn3)nc(CO)n4C(C)C)n2)C[C@@H]1Cl (racemic) [Example 634, (6-(2-((±)-(cis)-3-Chloro-4-methoxypiperidin-1-yl)pyrimidin-4-ylamino)-1-isopropyl-1H-imidazo[4,5-c]pyridin-2-yl)methanol]
14.9 | CCC(C)n1cc(C(=O)NC2CCOCC2)c2cnc(Nc3ccnc(N4CCC(C)(O)CC4)n3)cc21 (racemic) [Example 638, 1-(sec-butyl)-6-((2-(4-hydroxy-4-methylpiperidin-1-yl)pyrimidin-4-yl)amino)-N-(tetrahydro-2H-pyran-4-yl)-1H-pyrrolo[3,2-c]pyridine-3-carboxamide]
3.45 | C[C@H](n1c(CO)nc2cnc(Nc3ccnc(N4CC[C@H](O)[C@H](F)C4)n3)cc21)C(C)(F)F (racemic) [Example 644, (±)-(cis)-1-(4-(1-((S)-3,3-Difluorobutan-2-yl)-2-(hydroxymethyl)-1H-imidazo[4,5-c]pyridin-6-ylamino)pyrimidin-2-yl)-3-fluoropiperidin-4-ol]
68.7 | CC(C)n1c(CO)nc2cnc(Nc3ccnc(N4CC[C@H](O)[C@](C)(F)C4)n3)cc21 (racemic) [Example 645, (3RS,4SR)-3-Fluoro-1-(4-((2-(hydroxymethyl)-1-isopropyl-1H-imidazo[4,5-c]pyridin-6-yl)amino)pyrimidin-2-yl)-3-methylpiperidin-4-ol]
3.72 | CCC(C)n1cc(C(=O)NC2CCOCC2)c2cnc(Nc3ccnc(N4C[C@@H](F)[C@@H](O)C(C)(C)C4)n3)cc21 (mixture of isomers) [Example 646, 1-sec-Butyl-6-(2-((±)-cis-5-fluoro-4-hydroxy-3,3-dimethylpiperidin-1-yl)pyrimidin-4-ylamino)-N-(tetrahydro-2H-pyran-4-yl)-1H-pyrrolo[3,2-c]pyridine-3-carboxamide]
393 | CC(C)n1c(CO)nc2cnc(Nc3ccnc(N4CC[C@H]([S+](C)[O-])[C@H](F)C4)n3)cc21 (relative stereo) [Example 623, {6-[2-(cis-3-Fluoro-4-methanesulfinylpiperidin-1-yl)pyrimidin-4-ylamino]-1-isopropyl-1H-imidazo[4,5-c]pyridin-2-yl}methanol]
3.41 | CCC(C)n1cc(C(=O)NC2CCOCC2)c2cnc(Nc3ccnc(N4CC[C@@H](O)[C@@H](F)C4)n3)cc21 (single isomer, unassigned) [Example 323]
2.39 | CCC(C)n1cc(C(=O)NC2CCOCC2)c2cnc(Nc3ccnc(N4CC[C@@H](O)[C@@H](F)C4)n3)cc21 (single isomer, unassigned) [Example 324]
